Patent US11800869B2, “Use of 6-oxo-1,4,5,6-tetrahydropyridazine-3-carboxylic acid, 1-methyl 6-oxo-1,4,5,6-tetrahydropyridazine-3-carboxylic acid and 1-alkyl-6-oxo-1,4,5,6-tetrahydropyridazine-3-carboxylic acid for improving growth performance in plants” (Advanced Crop Chem LLP, priority 2020, dated 2023)
Several values for one entry are separate records, joined by “and”; a condition that tells them apart may be missing. Identical values can stand only once.

How the values were obtained:
Format in all cases: in vivo
Wheat seeds [1] = experiment: Wheat seed treatment, in vitro germination and early growth compared with Take Off (Example 11); conditions: 10 g per ton of seed; petri dishes, 20C; FIG. 6
Procedure: Referring to FIG. 6, illustrated are three photographs 600 of an In vitro assessment of the effects on the germination and early stage growth of wheat following treatment of naked wheat seed with of 6-oxo-1,4,5,6 tetrahydropyridazine-3-carboxylic acid. Untreated 610, THP 620 and a commercial seed treatment, Take Off® 630. The seed shown in 620 was grown under natural daylight conditions at 20-22 degrees Centigrade. Wheat seeds were treated with 6-oxo-1,4,5,6 tetrahydropyridazine-3-carboxylic acid or a commercial seed treatment at labeled rates (Take Off ST) and allowed to germinate to examine and compare the effects of temperature on germination. Wheat seeds were treated with 6-oxo-1,4,5,6 tetrahydropyridazine-3-carboxylic acid or Take Off, a commercial biostimulant (that claims faster germination and emergence). The treated seeds received the treatment compounds at the rate of 10 g per ton of seed utilizing the same dosing methodology as Example 1. However in this case seeds were germinated on moistened absorbent paper towel discs in closed petri dishes. The seeds were incubated at 20C in darkness until germination commenced and then grown in natural diurnal conditions for a further 12 days.

[2] = system: Soybean seeds (Var. Viking); experiment: Soybean seed treatment, germination paper, shoot fresh weight (Example 10); conditions: seeds imbibed three minutes in 0.01 mM; germination paper 75-85° F; two table lines, Control 98.3 and 106.2
Procedure: Soybean seeds were treated with 6-oxo-1,4,5,6 tetrahydropyridazine-3-carboxylic acid and the weights of the shoots were determined as shown in Table 2. Early seedling emergence is important for early establishment of a vigorous and productive crop. Soybean seeds (Var. Viking) were treated by imbibing them for three minutes with a solution of 0.01 mM 6-oxo-1,4,5,6 tetrahydropyridazine-3-carboxylic acid in an aqueous solution also containing soft soap and glycerol at pH 5.7-5.8. The control seeds were imbibed in aqueous solution containing only the soft soap and glycerol at pH 5.7-5.8. The seeds were placed on moist germination paper and allowed to germinate at 75-85° F. The fresh weights were taken to assess the shoot development.

Wheat seeds [3] = experiment: Wheat seed treatment, seedling emergence at two temperatures (Example 15); conditions: 10 g/ton of seeds
Procedure: Wheat seeds were treated with 6-oxo-1,4,5,6-tetrahydropyridizin-3-carboxylic acid at two different temperature regimes to investigate the affect on germination. Soil temperature impacts the percentage of seeds germinating and how fast seedlings emerge from the soil. Each of these parameters influences how well the plants develop and ultimately crop yield. […] Wheat seeds were treated with 6-oxo-1,4,5,6 tetrahydropyridazine-3-carboxylic acid (THP) at a rate of 10 g/ton of seeds in accordance with the methodology of example 1. Seeds were planted in 12″×12″ germination trays in a 1″ grid, 100 seeds per tray. Growth media was coarse river sand. Additionally, each cell in the grid received one granule of Osmacote approximately above where the seed was planted. Trays were irrigated every day. The seeds were then allowed to germinate at controlled environment chambers at either 10C (50F) or 20C (68 F) to examine the effects at different temperatures. The number of seedlings emerged was tracked daily.

[4] = system: wheat seedlings (Var. VitPro); experiment: Foliar treatment of wheat seedlings, number of tillers (Example 13); conditions: counted at Zadoks GS 15, untreated 3.7
Procedure: Wheat seedlings were given foliar treatments with a range of concentrations of 6-oxo-1,4,5,6 tetrahydropyridazine-3-carboxylic acid and the seedlings were grown and the numbers of tillers each plant produced was monitored as shown in Table 4. The number of tillers is considered positively related to grain yield. Sets of wheat seedlings (Var. VitPro) were given foliar treatments of 6-oxo-1,4,5,6 tetrahydropyridazine-3-carboxylic acid at concentrations of 0.1 mM, 0.01 mM or 0.001 mM *in a standard nutrient solution. Seedlings were given one foliar treatment at Zadoks GS 12 (FIG. 1); the plants grown in a greenhouse and fed a standard plant nutrient solution. The untreated control plants were sprayed with the nutrient solution containing sodium dodecyl sulfate, 0.1% and glycerol 1.2%. The number of tillers for each plant were counted at Zadoks GS 15 (FIG. 1) and the average number of tillers per plant calculated.

[5] = system: wheat plants (Variety Skyfall); experiment: Foliar treatment of greenhouse grown wheat, foliar and root biomass (Example 4); conditions: foliar treatment, 30 days later, Zadocks growth stage 22-24
Procedure: Wheat, corn and pepper seeds were treated with 6-oxo-1,4,5,6-tetrahydropyridizine-3-carboxylic acid (THP) using the same methodology and growth conditions as described in example 1 and the resulting plants were also treated with a light foliar cover spray using an electric hand-held sprayer. (100 g in 200 L water plus 0.25% Nouryon wetter) of 6-oxo-1,4,5,6 tetrahydropyridazine-3-carboxylic acid (30 days post emergence (wheat at Zadoks GS 14 (see FIG. 1), maize at V2, Pepper at 3-4 leaf stage) and then assessed for root and shoot biomass 45 days later. At 75 days post planting the plants were assessed for root and shoot biomass as measured with dry weight. Greenhouse grown wheat plants (Variety […]) were given foliar treatment of 1-methyl 6-oxo-1,4,5,6 tetrahydropyridazine-3-carboxylic acid (MTHP) or 6-oxo-1,4,5,6 tetrahydropyridazine-3-carboxylic acid (THP), utilizing the same methodology as in example 2. Foliar and root biomass were determined 30 days later at Zadocks growth stage 22-24.

[6] = system: Field grown wheat plants (Var: AWC 13); experiment: Foliar treatment of field grown wheat (Example 6); conditions: foliar treatment at Zadoks GS 25-26, 100 g in 200 L water, mean of 10 plants
Procedure: Field grown wheat plants (Var: AWC 13) were given foliar treatment at Zadoks GS 25-26 (FIG. 1) of 6-oxo-1,4,5,6 tetrahydropyridazine-3-carboxylic acid (THP) or 1-methyl 6-oxo-1,4,5,6 tetrahydropyridazine-3-carboxylic acid (MTHP) both at 100 g in 200 L water plus 0.25% Nouryon wetter. Plants were grown under standard UK wheat growing cultural practice (https://andb.org.uk/wheatgg). Yield was assessed at harvest.

With `O=C1CCC(C(=O)O)=NN1` [THP, 6-oxo-1,4,5,6 tetrahydropyridazine-3-carboxylic acid] the “root biomass compared with untreated seeds or Take Off treated seeds” value (Wheat seeds [1]) was “greater root biomass”, the “shoots compared with untreated seeds or Take Off treated seeds” value (Wheat seeds [1]) was “longer bright green shoots” and the “Shoots, Fresh wt.” value [2] was 114.3 mg and 128.6 mg. For the same molecule, the “% Emergence” value (Wheat seeds [3]; 10 C., 5 days after planting) was 0%, the “% Emergence” value (Wheat seeds [3]; 10 C., 6 days after planting) was 0% and the “% Emergence” value (Wheat seeds [3]; 10 C., 7 days after planting) was 11%. For the same molecule, the “% Emergence” value (Wheat seeds [3]; 10 C., 8 days after planting) was 19%, the “% Emergence” value (Wheat seeds [3]; 10 C., 9 days after planting) was 27% and the “% Emergence” value (Wheat seeds [3]; 10 C., 10 days after planting) was 60%. The “% Emergence” value (Wheat seeds [3]; 10 C., 11 days after planting) was 68%, the “% Emergence” value (Wheat seeds [3]; 20 C., 5 days after planting) was 14% and the “% Emergence” value (Wheat seeds [3]; 20 C., 6 days after planting) was 48%. For the same molecule, the “% Emergence” value (Wheat seeds [3]; 20 C., 7 days after planting) was 80%, the “% Emergence” value (Wheat seeds [3]; 20 C., 8 days after planting) was 100% and the “% Emergence” value (Wheat seeds [3]; 20 C., 9 days after planting) was 100%. For the same molecule, the “% Emergence” value (Wheat seeds [3]; 20 C., 10 days after planting) was 100%, the “% Emergence” value (Wheat seeds [3]; 20 C., 11 days after planting) was 100% and the “Tillers per plant, average” value ([4]; foliar treatment 0.001 mM at Zadoks GS 12) was 4.1. The “Tillers per plant, average” value ([4]; foliar treatment 0.01 mM at Zadoks GS 12) was 9.5, the “Tillers per plant, average” value ([4]; foliar treatment 0.1 mM at Zadoks GS 12) was 7.4 and the “Dry Weight Shoot” value ([5]; Con 0.55) was 0.74 g. For the same molecule, the “Dry Weight Root” value ([5]; Con 1.03) was 1.45 g, the “Dry Weight Shoot” value ([6]; Con 0.47) was 1.01 and the “Dry Weight Root” value ([6]; Con 0.65) was 1.5.
